# According to patent US11820766B2, “Monoacylglycerol lipase modulators” (Janssen Pharmaceutica NV, priority 2018, dated 2023):
# Counter-ions that a name gives are not always drawn.
# Molecular target: T1, human MGL from HeLa cells (Homo sapiens, UniProt Q99685)
# T1 construct: combining endogenously expressed MGL from HeLa cells with test compounds; endogenous in cells; host or cells: HeLa cells / cell homogenates
# T1 sequence (Q99685 1-303): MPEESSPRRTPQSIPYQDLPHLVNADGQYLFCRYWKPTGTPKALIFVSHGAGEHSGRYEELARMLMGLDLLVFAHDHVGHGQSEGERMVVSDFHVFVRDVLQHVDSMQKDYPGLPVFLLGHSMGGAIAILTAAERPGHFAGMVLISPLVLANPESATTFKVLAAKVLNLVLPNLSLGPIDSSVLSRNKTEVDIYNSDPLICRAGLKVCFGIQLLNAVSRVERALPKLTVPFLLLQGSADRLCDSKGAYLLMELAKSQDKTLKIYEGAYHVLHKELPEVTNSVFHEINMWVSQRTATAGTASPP
# Test: In vitro MGL activity assay: [glycerol-1,3-3H]-oleyl glycerol cleavage by MGL from HeLa cells
# Type: biochemical
# Conditions: 300 nM [Glycerol-1,3-3H]-oleyl glycerol, one hour
# Description: MGL is the predominant hydrolase in HeLa cells/cell homogenates.
row,Structure (SMILES),IC50
1,"C[C@H]1c2nn(C)c(-c3cc(F)c(F)c(F)c3)c2CCN1C(=O)c1cccn2ncc(F)c12 [Example 377, [(7S)-2,7-Dimethyl-3-(3,4,5-trifluorophenyl)-5,7-dihydro-4H-pyrazolo[3,4-c]pyridin-6-yl]-(3-fluoropyrazolo[1,5-a]pyridin-4-yl)methanone]",4.68 nM
2,"C[C@H]1c2nn(C)c(-c3cc(F)c(F)c(F)c3)c2CCN1C(=O)c1ccn2ncc(F)c2c1 [Example 378, [(7S)-2,7-Dimethyl-3-(3,4,5-trifluorophenyl)-5,7-dihydro-4H-pyrazolo[3,4-c]pyridin-6-yl]-(3-fluoropyrazolo[1,5-a]pyridin-5-yl)methanone]",38.8 nM
3,"C[C@H]1c2nn(C)c(-c3cc(F)c(F)c(F)c3)c2CCN1C(=O)c1cccn2ncc(Br)c12 [Example 379, (3-Bromopyrazolo[1,5-a]pyridin-4-yl)-[(7S)-2,7-dimethyl-3-(3,4,5-trifluorophenyl)-5,7-dihydro-4H-pyrazolo[3,4-c]pyridin-6-yl]methanone]",45.5 nM
4,"Cc1cnn2cccc(C(=O)N3CCc4c(nn(C)c4-c4cc(F)c(F)c(F)c4)[C@@H]3C)c12 [Example 380, [(7S)-2,7-Dimethyl-3-(3,4,5-trifluorophenyl)-5,7-dihydro-4H-pyrazolo[3,4-c]pyridin-6-yl]-(3-methylpyrazolo[1,5-a]pyridin-4-yl)methanone]",44 nM
5,"C[C@H]1c2nn(C)c(-c3cc(F)c(F)c(F)c3)c2CCN1C(=O)c1cnn2ccccc12 [Example 381, [(7S)-2,7-Dimethyl-3-(3,4,5-trifluorophenyl)-5,7-dihydro-4H-pyrazolo[3,4-c]pyridin-6-yl]-pyrazolo[1,5-a]pyridin-3-yl-methanone.TFA salt]",10.7 nM
6,"Cc1nn2ccccc2c1C(=O)N1CCc2c(nn(C)c2-c2cc(F)c(F)c(F)c2)[C@@H]1C [Example 382, [(7S)-2,7-Dimethyl-3-(3,4,5-trifluorophenyl)-5,7-dihydro-4H-pyrazolo[3,4-c]pyridin-6-yl]-(2-methylpyrazolo[1,5-a]pyridin-3-yl)methanone]",4.26 nM
7,"Cc1ccn2ncc(C(=O)N3CCc4c(nn(C)c4-c4cc(F)c(F)c(F)c4)[C@@H]3C)c2c1 [Example 383, [(7S)-2,7-Dimethyl-3-(3,4,5-trifluorophenyl)-5,7-dihydro-4H-pyrazolo[3,4-c]pyridin-6-yl]-(5-methylpyrazolo[1,5-a]pyridin-3-yl)methanone]",6.39 nM
8,"C[C@H]1c2nn(C)c(-c3cc(F)c(F)c(F)c3)c2CCN1C(=O)c1cnn2cc(F)ccc12 [Example 384, [(7S)-2,7-Dimethyl-3-(3,4,5-trifluorophenyl)-5,7-dihydro-4H-pyrazolo[3,4-c]pyridin-6-yl]-(6-fluoropyrazolo[1,5-a]pyridin-3-yl)methanone]",44 nM
9,"Cc1cccc2c(C(=O)N3CCc4c(nn(C)c4-c4cc(F)c(F)c(F)c4)[C@@H]3C)c(C3CC3)nn12 [Example 385, (2-Cyclopropyl-7-methyl-pyrazolo[1,5-a]pyridin-3-yl)-[(7S)-2,7-dimethyl-3-(3,4,5-trifluorophenyl)-5,7-dihydro-4H-pyrazolo[3,4-c]pyridin-6-yl]methanone]",120 nM
10,"Cc1cccc2c(C(=O)N3CCc4c(nn(C)c4-c4cc(F)c(F)c(F)c4)[C@@H]3C)cnn12 [Example 386, [(7S)-2,7-Dimethyl-3-(3,4,5-trifluorophenyl)-5,7-dihydro-4H-pyrazolo[3,4-c]pyridin-6-yl]-(7-methylpyrazolo[1,5-a]pyridin-3-yl)methanone]",11.7 nM
11,"COc1cccc2c(C(=O)N3CCc4c(nn(C)c4-c4cc(F)c(F)c(F)c4)[C@@H]3C)cnn12 [Example 387, [(7S)-2,7-Dimethyl-3-(3,4,5-trifluorophenyl)-5,7-dihydro-4H-pyrazolo[3,4-c]pyridin-6-yl]-(7-methoxypyrazolo[1,5-a]pyridin-3-yl)methanone]",26.4 nM
12,"COc1ccc2c(C(=O)N3CCc4c(nn(C)c4-c4cc(F)c(F)c(F)c4)[C@@H]3C)cnn2c1 [Example 388, [(7S)-2,7-Dimethyl-3-(3,4,5-trifluorophenyl)-5,7-dihydro-4H-pyrazolo[3,4-c]pyridin-6-yl]-(6-methoxypyrazolo[1,5-a]pyridin-3-yl)methanone.TFA salt]",60.7 nM
13,"COc1ccn2ncc(C(=O)N3CCc4c(nn(C)c4-c4cc(F)c(F)c(F)c4)[C@@H]3C)c2c1 [Example 389, [(7S)-2,7-Dimethyl-3-(3,4,5-trifluorophenyl)-5,7-dihydro-4H-pyrazolo[3,4-c]pyridin-6-yl]-(5-methoxypyrazolo[1,5-a]pyridin-3-yl)methanone]",9.94 nM
14,"COc1cccn2ncc(C(=O)N3CCc4c(nn(C)c4-c4cc(F)c(F)c(F)c4)[C@@H]3C)c12 [Example 390, [(7S)-2,7-Dimethyl-3-(3,4,5-trifluorophenyl)-5,7-dihydro-4H-pyrazolo[3,4-c]pyridin-6-yl]-(4-methoxypyrazolo[1,5-a]pyridin-3-yl)methanone]",12.6 nM
15,"C[C@H]1c2nn(C)c(-c3cc(F)c(F)c(F)c3)c2CCN1C(=O)c1ccc2nccn2c1 [Example 391, [(7S)-2,7-Dimethyl-3-(3,4,5-trifluorophenyl)-5,7-dihydro-4H-pyrazolo[3,4-c]pyridin-6-yl]-imidazo[1,2-a]pyridin-6-yl-methanone]",103 nM
16,"C[C@H]1c2nn(C)c(-c3cc(F)c(F)c(F)c3)c2CCN1C(=O)c1cccn2ccnc12 [Example 392, [(7S)-2,7-Dimethyl-3-(3,4,5-trifluorophenyl)-5,7-dihydro-4H-pyrazolo[3,4-c]pyridin-6-yl]-imidazo[1,2-a]pyridin-8-yl-methanone]",711 nM
17,"C[C@H]1c2nn(C)c(-c3cc(F)c(F)c(F)c3)c2CCN1C(=O)c1cnc2cc(F)ccn12 [Example 393, [(7S)-2,7-Dimethyl-3-(3,4,5-trifluorophenyl)-5,7-dihydro-4H-pyrazolo[3,4-c]pyridin-6-yl]-(7-fluoroimidazo[1,2-a]pyridin-3-yl)methanone]",252 nM
18,"Cc1cn2c(C(=O)N3CCc4c(nn(C)c4-c4cc(F)c(F)c(F)c4)[C@@H]3C)cccc2n1 [Example 394, [(7S)-2,7-Dimethyl-3-(3,4,5-trifluorophenyl)-5,7-dihydro-4H-pyrazolo[3,4-c]pyridin-6-yl]-(2-methylimidazo[1,2-a]pyridin-5-yl)methanone]",140 nM
19,"COc1cc(Cl)cc(-c2c3c(nn2C)[C@H](C)N(C(=O)c2c(C)nc4ccccn24)CC3)c1 [Example 395, [(7S)-3-(3-Chloro-5-methoxy-phenyl)-2,7-dimethyl-5,7-dihydro-4H-pyrazolo[3,4-c]pyridin-6-yl]-(2-methylimidazo[1,2-a]pyridin-3-yl) methanone]",6.73 nM
20,"Cc1cc(F)cc(-c2c3c(nn2C)[C@H](C)N(C(=O)c2c(C)nc4ccccn24)CC3)c1 [Example 396, [(7S)-3-(3-Fluoro-5-methyl-phenyl)-2,7-dimethyl-5,7-dihydro-4H-pyrazolo[3,4-c]pyridin-6-yl]-(2-methylimidazo[1,2-a]pyridin-3-yl)methanone]",5.04 nM
21,"Cc1nc2ccccn2c1C(=O)N1CCc2c(nn(C)c2-c2cc(F)c(F)c(F)c2)[C@@H]1C [Example 397, [(7S)-2,7-Dimethyl-3-(3,4,5-trifluorophenyl)-5,7-dihydro-4H-pyrazolo[3,4-c]pyridin-6-yl]-(2-methylimidazo[1,2-a]pyridin-3-yl)methanone]",10.3 nM
22,"Cc1c(C(=O)N2CCc3c(nn(C)c3-c3cc(F)c(F)c(F)c3)[C@@H]2C)nc2ccccn12 [Example 398, [(7S)-2,7-Dimethyl-3-(3,4,5-trifluorophenyl)-5,7-dihydro-4H-pyrazolo[3,4-c]pyridin-6-yl]-(3-methylimidazo[1,2-a]pyridin-2-yl)methanone]",248 nM
23,"Cc1ccn2c(C(=O)N3CCc4c(nn(C)c4-c4cc(F)c(F)c(F)c4)[C@@H]3C)cnc2c1 [Example 399, [(7S)-2,7-Dimethyl-3-(3,4,5-trifluorophenyl)-5,7-dihydro-4H-pyrazolo[3,4-c]pyridin-6-yl]-(7-methylimidazo[1,2-a]pyridin-3-yl)methanone]",63.2 nM
24,"Cc1ccc2ncc(C(=O)N3CCc4c(nn(C)c4-c4cc(F)c(F)c(F)c4)[C@@H]3C)n2c1 [Example 400, [(7S)-2,7-Dimethyl-3-(3,4,5-trifluorophenyl)-5,7-dihydro-4H-pyrazolo[3,4-c]pyridin-6-yl]-(6-methylimidazo[1,2-a]pyridin-3-yl)methanone]",52.3 nM
25,"Cc1cccc2ncc(C(=O)N3CCc4c(nn(C)c4-c4cc(F)c(F)c(F)c4)[C@@H]3C)n12 [Example 401, [(7S)-2,7-Dimethyl-3-(3,4,5-trifluorophenyl)-5,7-dihydro-4H-pyrazolo[3,4-c]pyridin-6-yl]-(5-methylimidazo[1,2-a]pyridin-3-yl)methanone]",14.5 nM
26,"Cc1nc2cc(F)ccn2c1C(=O)N1CCc2c(nn(C)c2-c2cc(F)c(F)c(F)c2)[C@@H]1C [Example 402, [(7S)-2,7-Dimethyl-3-(3,4,5-trifluorophenyl)-5,7-dihydro-4H-pyrazolo[3,4-c]pyridin-6-yl]-(7-fluoro-2-methyl-imidazo[1,2-a]pyridin-3-yl)methanone]",21.6 nM
27,"Cc1nc2c(C)cccn2c1C(=O)N1CCc2c(nn(C)c2-c2cc(F)c(F)c(F)c2)[C@@H]1C [Example 403, (2,8-Dimethylimidazo[1,2-a]pyridin-3-yl)-[(7S)-2,7-dimethyl-3-(3,4,5-trifluorophenyl)-5,7-dihydro-4H-pyrazolo[3,4-c]pyridin-6-yl]methanone]",43.6 nM
